From patent US20010053796A1, “Delta-aminolevulinic acid for prevention and treatment of infection microorganisms and parasite” (priority 2000, published 2001)
Where two headings read alike, the source gives them in different places.

System: Scutica
Experiment: Extinction effect for Scutica in vitro
Type: cell-based
Protocol: Scutica used in this experiment was taken from epidermal mucus of infected flatfish and suspended in HBSS. The suspension was kept at room temperature for 30 min and centrifuged at 800 rpm for 10 min. The supernatant was removed. The pellet was suspended in MEM-10 (minimum essential medium, 10% FBS, streptomycine, penicilin) and kept for 30 min, and then centrifuged in the same manner as above. The supernatant was removed and left imagoes was gained and made into imagoes suspension with certain number of imagoes by counting with the blood counting machine. The imagoes suspension was subcultured in vitro and inoculated to prepared FHM cell of certain number (2.5×10^5 cells/mL) and then cultured at 17° C. Before carrying out the experiment, by measuring the extinction effect for Scutica according to the concentration of δ-aminolevulinic acid and reaction time, optimum δ-aminolevulinic acid concentration and treatment time was examined for Scutica extermination. The Scutica culture solution cultured in FHM cell line was centrifuged at 3000 rpm for 5 min. The supernatant was removed and was added to PBS. It was washed 3 times to use for the experiment. 1.0 M δ-aminolevulinic acid solution made from sterilized 3rd distilled water was diluted by 2-fold up to 1000-fold (1.0 mM). Scutica was added to each well of 96-well microplate at an amount of 50 μL. Then, δ-aminolevulinic acid solution diluted by 2 steps were added and cultured for 120 min while the viability of Scutica was monitored. During the culture for 120 min, extinction time was measured in 10 min intervals, at each concentration. Between each inoculation, they were stirred for 5 min and were kept for 5 min. after reaction, 1% trypan blue which is staining solution for organism was added to each wells at an amount of 100 μL and mixed. In cultured Scutica with the diluted solution of δ-aminolevulinic acid, the number of parasites was counted by the blood counting machine, according to time. […] Through the 60 min-treatment, more than 50% of Scutica were extinct. At the actual concentration of 2 mM, about 50% of Scutica was extinct through 1 hour-treatment.

NCC(=O)CCC(=O)O [δ-aminolevulinic acid]
Scutica extinct (500 mM to 2 mM, treatment of at minimum 2 hours): more than 90% | time to completely extinct Scutica (30˜15 mM): 20 min | time to completely extinct Scutica (500 to 60 mM): 10 min | Scutica extinct (60 min-treatment, concentration not given): more than 50% | Scutica extinct (actual concentration of 2 mM, 1 hour-treatment): about 50% | time to completely extinct Scutica (actual concentration of 8 mM): 60 min | viability at 2000 µM (read-out: Viability (%) of Scutica, 2.0 mM, reaction time 10): 50% | viability at 2000 µM (read-out: Viability (%) of Scutica, 2.0 mM, reaction time 20): 60% | viability at 2000 µM (read-out: Viability (%) of Scutica, 2.0 mM, reaction time 30): 40% | viability at 2000 µM (read-out: Viability (%) of Scutica, 2.0 mM, reaction time 40): 45% | viability at 2000 µM (read-out: Viability (%) of Scutica, 2.0 mM, reaction time 50): 35% | viability at 2000 µM (read-out: Viability (%) of Scutica, 2.0 mM, reaction time 60): 55% | viability at 2000 µM (read-out: Viability (%) of Scutica, 2.0 mM, reaction time 70): 40% | viability at 2000 µM (read-out: Viability (%) of Scutica, 2.0 mM, reaction time 80): 40% | viability at 2000 µM (read-out: Viability (%) of Scutica, 2.0 mM, reaction time 90): 35% | viability at 2000 µM (read-out: Viability (%) of Scutica, 2.0 mM, reaction time 110): 40% | viability at 2000 µM (read-out: Viability (%) of Scutica, 2.0 mM, reaction time 120): 10% | viability at 4000 µM (read-out: Viability (%) of Scutica, 4.0 mM, reaction time 10): 50% | viability at 4000 µM (read-out: Viability (%) of Scutica, 4.0 mM, reaction time 20): 50% | viability at 4000 µM (read-out: Viability (%) of Scutica, 4.0 mM, reaction time 30): 30% | viability at 4000 µM (read-out: Viability (%) of Scutica, 4.0 mM, reaction time 40): 30% | viability at 4000 µM (read-out: Viability (%) of Scutica, 4.0 mM, reaction time 50): 20% | viability at 4000 µM (read-out: Viability (%) of Scutica, 4.0 mM, reaction time 60): 45% | viability at 4000 µM (read-out: Viability (%) of Scutica, 4.0 mM, reaction time 70): 30% | viability at 4000 µM (read-out: Viability (%) of Scutica, 4.0 mM, reaction time 80): 45% | viability at 4000 µM (read-out: Viability (%) of Scutica, 4.0 mM, reaction time 90): 40% | viability at 4000 µM (read-out: Viability (%) of Scutica, 4.0 mM, reaction time 110): 10% | viability at 4000 µM (read-out: Viability (%) of Scutica, 4.0 mM, reaction time 120): 10% | viability at 8000 µM (read-out: Viability (%) of Scutica, 8.0 mM, reaction time 10): 45% | viability at 8000 µM (read-out: Viability (%) of Scutica, 8.0 mM, reaction time 20): 50% | viability at 8000 µM (read-out: Viability (%) of Scutica, 8.0 mM, reaction time 30): 45% | viability at 8000 µM (read-out: Viability (%) of Scutica, 8.0 mM, reaction time 40): 25% | viability at 8000 µM (read-out: Viability (%) of Scutica, 8.0 mM, reaction time 50): 40% | viability at 8000 µM (read-out: Viability (%) of Scutica, 8.0 mM, reaction time 60): 40% | viability at 8000 µM (read-out: Viability (%) of Scutica, 8.0 mM, reaction time 70): 0% | viability at 8000 µM (read-out: Viability (%) of Scutica, 8.0 mM, reaction time 80): 0% | viability at 8000 µM (read-out: Viability (%) of Scutica, 8.0 mM, reaction time 90): 0% | viability at 8000 µM (read-out: Viability (%) of Scutica, 8.0 mM, reaction time 110): 0% | viability at 8000 µM (read-out: Viability (%) of Scutica, 8.0 mM, reaction time 120): 0% | viability at 15000 µM (read-out: Viability (%) of Scutica, 15 mM, reaction time 10): 30% | viability at 15000 µM (read-out: Viability (%) of Scutica, 15 mM, reaction time 20): 0% | viability at 15000 µM (read-out: Viability (%) of Scutica, 15 mM, reaction time 30): 0% | viability at 15000 µM (read-out: Viability (%) of Scutica, 15 mM, reaction time 40): 0% | viability at 15000 µM (read-out: Viability (%) of Scutica, 15 mM, reaction time 50): 0% | viability at 15000 µM (read-out: Viability (%) of Scutica, 15 mM, reaction time 60): 0% | viability at 15000 µM (read-out: Viability (%) of Scutica, 15 mM, reaction time 70): 0% | viability at 15000 µM (read-out: Viability (%) of Scutica, 15 mM, reaction time 80): 0% | viability at 15000 µM (read-out: Viability (%) of Scutica, 15 mM, reaction time 90): 0% | viability at 15000 µM (read-out: Viability (%) of Scutica, 15 mM, reaction time 110): 0% | viability at 15000 µM (read-out: Viability (%) of Scutica, 15 mM, reaction time 120): 0% | viability at 30000 µM (read-out: Viability (%) of Scutica, 30 mM, reaction time 10): 20% | viability at 30000 µM (read-out: Viability (%) of Scutica, 30 mM, reaction time 20): 0% | viability at 30000 µM (read-out: Viability (%) of Scutica, 30 mM, reaction time 30): 0% | viability at 30000 µM (read-out: Viability (%) of Scutica, 30 mM, reaction time 40): 0% | viability at 30000 µM (read-out: Viability (%) of Scutica, 30 mM, reaction time 50): 0% | viability at 30000 µM (read-out: Viability (%) of Scutica, 30 mM, reaction time 60): 0% | viability at 30000 µM (read-out: Viability (%) of Scutica, 30 mM, reaction time 70): 0% | viability at 30000 µM (read-out: Viability (%) of Scutica, 30 mM, reaction time 80): 0% | viability at 30000 µM (read-out: Viability (%) of Scutica, 30 mM, reaction time 90): 0% | viability at 30000 µM (read-out: Viability (%) of Scutica, 30 mM, reaction time 110): 0% | viability at 30000 µM (read-out: Viability (%) of Scutica, 30 mM, reaction time 120): 0% | viability at 60000 µM (read-out: Viability (%) of Scutica, 60 mM, reaction time 10): 0% | viability at 60000 µM (read-out: Viability (%) of Scutica, 60 mM, reaction time 20): 0% | viability at 60000 µM (read-out: Viability (%) of Scutica, 60 mM, reaction time 30): 0% | viability at 60000 µM (read-out: Viability (%) of Scutica, 60 mM, reaction time 40): 0% | viability at 60000 µM (read-out: Viability (%) of Scutica, 60 mM, reaction time 50): 0% | viability at 60000 µM (read-out: Viability (%) of Scutica, 60 mM, reaction time 60): 0% | viability at 60000 µM (read-out: Viability (%) of Scutica, 60 mM, reaction time 70): 0% | viability at 60000 µM (read-out: Viability (%) of Scutica, 60 mM, reaction time 80): 0% | viability at 60000 µM (read-out: Viability (%) of Scutica, 60 mM, reaction time 90): 0% | viability at 60000 µM (read-out: Viability (%) of Scutica, 60 mM, reaction time 110): 0% | viability at 60000 µM (read-out: Viability (%) of Scutica, 60 mM, reaction time 120): 0% | viability at 125000 µM (read-out: Viability (%) of Scutica, 125 mM, reaction time 10): 0% | viability at 125000 µM (read-out: Viability (%) of Scutica, 125 mM, reaction time 20): 0% | viability at 125000 µM (read-out: Viability (%) of Scutica, 125 mM, reaction time 30): 0% | viability at 125000 µM (read-out: Viability (%) of Scutica, 125 mM, reaction time 40): 0% | viability at 125000 µM (read-out: Viability (%) of Scutica, 125 mM, reaction time 50): 0% | viability at 125000 µM (read-out: Viability (%) of Scutica, 125 mM, reaction time 60): 0% | viability at 125000 µM (read-out: Viability (%) of Scutica, 125 mM, reaction time 70): 0% | viability at 125000 µM (read-out: Viability (%) of Scutica, 125 mM, reaction time 80): 0% | viability at 125000 µM (read-out: Viability (%) of Scutica, 125 mM, reaction time 90): 0% | viability at 125000 µM (read-out: Viability (%) of Scutica, 125 mM, reaction time 110): 0% | viability at 125000 µM (read-out: Viability (%) of Scutica, 125 mM, reaction time 120): 0% | viability at 250000 µM (read-out: Viability (%) of Scutica, 250 mM, reaction time 10): 0% | viability at 250000 µM (read-out: Viability (%) of Scutica, 250 mM, reaction time 20): 0% | viability at 250000 µM (read-out: Viability (%) of Scutica, 250 mM, reaction time 30): 0% | viability at 250000 µM (read-out: Viability (%) of Scutica, 250 mM, reaction time 40): 0% | viability at 250000 µM (read-out: Viability (%) of Scutica, 250 mM, reaction time 50): 0% | viability at 250000 µM (read-out: Viability (%) of Scutica, 250 mM, reaction time 60): 0% | viability at 250000 µM (read-out: Viability (%) of Scutica, 250 mM, reaction time 70): 0% | viability at 250000 µM (read-out: Viability (%) of Scutica, 250 mM, reaction time 80): 0% | viability at 250000 µM (read-out: Viability (%) of Scutica, 250 mM, reaction time 90): 0% | viability at 250000 µM (read-out: Viability (%) of Scutica, 250 mM, reaction time 110): 0% | viability at 250000 µM (read-out: Viability (%) of Scutica, 250 mM, reaction time 120): 0% | viability at 500000 µM (read-out: Viability (%) of Scutica, 500 mM, reaction time 10): 0% | viability at 500000 µM (read-out: Viability (%) of Scutica, 500 mM, reaction time 20): 0% | viability at 500000 µM (read-out: Viability (%) of Scutica, 500 mM, reaction time 30): 0% | viability at 500000 µM (read-out: Viability (%) of Scutica, 500 mM, reaction time 40): 0% | viability at 500000 µM (read-out: Viability (%) of Scutica, 500 mM, reaction time 50): 0% | viability at 500000 µM (read-out: Viability (%) of Scutica, 500 mM, reaction time 60): 0% | viability at 500000 µM (read-out: Viability (%) of Scutica, 500 mM, reaction time 70): 0% | viability at 500000 µM (read-out: Viability (%) of Scutica, 500 mM, reaction time 80): 0% | viability at 500000 µM (read-out: Viability (%) of Scutica, 500 mM, reaction time 90): 0% | viability at 500000 µM (read-out: Viability (%) of Scutica, 500 mM, reaction time 110): 0% | viability at 500000 µM (read-out: Viability (%) of Scutica, 500 mM, reaction time 120): 0%
